In patent US20030065001A1, “Fungicidal combinations comprising quinazolinone” (priority 1997, published 2003):

Tested on: Erysiphe graminis f.sp. tritici
Test: Efficacy against Erysiphe graminis f.sp. tritici on wheat (Example B-1)
Assay type: in vivo
Settings: single active ingredient
Description: A synergistic effect exists whenever the action of an active ingredient combination is greater than the sum of the actions of the individual components. The action to be expected E for a given active ingredient combination obeys the so-called COLBY formula and can be calculated as follows (COLBY, S.R. “Calculating synergistic and antagonistic responses of herbicide combination”. Weeds, Vol. 15, pages 20-22; 1967):
ppm=milligrams of active ingredient (=a.i.) per litre of spray mixture
X=% action by active ingredient I using p ppm of active ingredient
Y=% action by active ingredient II using q ppm of active ingredient.
According to Colby, the expected (additive) action of active ingredients I+II using p+q ppm of [formula]
If the action actually observed (O) is greater than the expected action (E), then the action of the combination is superadditive, i.e. there is a synergistic effect.
Wheat plants c.v. “Arina”, about 10 days old, are sprayed with aqueous suspensions of the active ingredients or mixtures thereof. One day later, the plants are inoculated by dusting with spores of Erysiphe graminis. The tests may also be carried out with curative applications, i.e. application 1-3 days after artificial inoculation of the plants. The plants are incubated in the greenhouse or in climate chambers at 20° C., 70% relative humidity. 7 to 10 days after inoculation, fungal attack on primary leaves is assessed.
The efficacy of the rest combinations and the single active ingredients in the above tests is determined by comparing the degree of fungal attack with that on untreated, similarly inoculated check plants.

Cc1cc(C2CC2)nc(Nc2ccccc2)n1 [Cyprodinil, cyprodinil]
% activity observed (Table 2, 10 ppm): 0%
% activity observed (Table 2, 25 ppm): 15%

N#Cc1c[nH]cc1-c1cccc2c1OC(F)(F)O2 [Fludioxonil, fludioxonil]
% activity observed (Table 1, 250 ppm): 20%

CON=C(C(=O)OC)c1ccccc1CON=C(C)c1cccc(C(F)(F)F)c1 [cmpd. V, methyl 2-{2-[4-(3-trifluoromethylphenyl)-3-aza-2-oxa-3-pentenyl]-phenyl}-2-methoxyimino-acetate]
inhibition at 0.25 ppm (Blumeria graminis, Table 3, 0.25 ppm, read-out: % activity observed): 29%
inhibition at 0.5 ppm (Blumeria graminis, Table 3, 0.5 ppm, read-out: % activity observed): 54%
